Read-outs that look alike come from different tables or passages of the source. Blank lines part the entries; values can stand above or below the compound they belong to.
Experiments:
[1] = tested on: db/db mice; assay: Fasting glycemia (Tests A); type: in vivo; conditions: Colby method
Experimental: (§3) The experiments were performed on db/db mice. db/db mice have a mutation of the leptin receptors inducing a cell signaling dysfunction of the latter. […] These mice are insulin resistant, hypertriglyceridemic and glucose-intolerant.
(§4) The evaluations presented were performed just before the supplementation (t=0) and at the end of supplementation (t=8 weeks).

[2] = tested on: db/db mice; assay: Oral test of carbohydrate tolerance, starch force-feeding (Tests A); type: in vivo; conditions: Colby method
Experimental: The experiments were performed on db/db mice. db/db mice have a mutation of the leptin receptors inducing a cell signaling dysfunction of the latter. The leptin receptors are highly expressed in the hypothalamus. Mice having a mutation of these receptors cannot efficiently regulate their energy stores. […] These mice are insulin resistant, hypertriglyceridemic and glucose-intolerant. They constitute a pertinent and predictive model especially for studying insulin sensitivity, triglyceridemia, type 2 diabetes and one of its complications, non-alcoholic steatohepatitis (NASH) (Aileen J F King Br J Pharmacol 2012; 166(3):877-894; Sanches S C et al. Biomed Res Int 2015).
The experimental time was nine weeks with a “run-in” of one week followed by eight weeks of supplementation with the plant extracts and a composition X. The male mice were ten weeks old at the start of the treatment.
Nine compositions X were tested. […]
The experimental evaluations focused especially on: • Measurement of the body mass; • Measurement of the fasting glycemia; • The change in glycemia during an oral test of carbohydrate tolerance. After force-feeding with starch (3 g/kg) in the fasted state, the change in glycemia in response to starch was measured in the tail by biopsy just before the force-feeding (t0) and then after 30, 60, 90 and 120 minutes. The area under the curve (AUC) was calculated. […]

[3] = tested on: db/db mice; assay: Body mass (Tests A); type: in vivo; conditions: after eight weeks in feed
Experimental: as §3, §4

[4] = tested on: db/db mice; conditions: highest dose, same model of db/db mice and similar experimental design; cited from earlier work
[5] = tested on: db/db mice; assay: Body mass, fat mass and lean mass by MRI (Tests B); type: in vivo; conditions: six weeks in feed, mean ± SEM
Source text: (§1) Using this predictive model of diabetic mice and incorporating composition C10 directly into the rodents' feed (1% Chrysanthellum indicum, 1% Cynara scolymus, 0.1% Vaccinium myrtillus, 0.001% Piper nigrum and 0.6% Olea europaea of the feed), this makes it possible to ensure its “multi-target” efficacy and its large-scale use, since intravenous or intraperitoneal injections are limited to a small number of people, given their mode of administration.
(§2) The experimental time was seven weeks with a “run-in” of one week followed by six weeks of supplementation with composition C10. The male mice were six weeks old at the start of the treatment. The evaluations were made just before the supplementation (t=0), weekly for certain parameters, and at the end of supplementation (t=6 weeks). […]

[6] = tested on: db/db mice; assay: Fasting glycemia (Tests B); type: in vivo; conditions: six weeks in feed, mean ± SEM
Source text: as §1, §2

[7] = tested on: db/db mice; assay: Glycated hemoglobin HbA1c (Tests B); type: in vivo; conditions: six weeks in feed, mean ± SEM
Source text: as §1, §2

[8] = tested on: db/db mice; assay: Insulin sensitivity test (Tests B); type: in vivo; conditions: six weeks in feed, mean ± SEM
Experimental: For compositions C7 to C9, an insulin sensitivity test was also performed. […] The change in glycemia in response to the insulin injection was measured in the tail by biopsy just before the injection (t0) and then after 30, 60, 90 and 120 minutes. The area under the curve (AUC) was calculated. A decrease in the AUC reflects a better response to the insulin injection and thus an improvement in the insulin sensitivity. Conversely, an increase in the AUC reflects poorer insulin sensitivity and thus insulin resistance.
as §1, §2

[9] = tested on: db/db mice; assay: Hepatic and serum triglycerides, serum HDL cholesterol (Tests B); type: in vivo; conditions: six weeks in feed, mean ± SEM
Source text: The experimental time was seven weeks with a “run-in” of one week followed by six weeks of supplementation with composition C10. The male mice were six weeks old at the start of the treatment. The evaluations were made just before the supplementation (t=0), weekly for certain parameters, and at the end of supplementation (t=6 weeks).
The experimental evaluations related especially to: • Measurement of the feed intake (t1, t2, t3, t4 and t5 weeks); • Measurement of the body mass (t0, t1, t2, t3, t4, t5, t6 weeks); • Measurement of the fat mass and lean mass by MRI (magnetic resonance imaging; t0 and t6 weeks); • Measurement of the fasting glycemia (t0, t1, t2, t3, t4, t5, t6 weeks); • Measurement of the glycated hemoglobin (HbA1c; t6 weeks); • The insulin sensitivity (test identical to that performed in Tests A; t0 and t6 weeks); • The carbohydrate tolerance (test identical to that performed in Tests A; t0 and t6 weeks); • Measurement of the hepatic and serum triglycerides (t6 weeks); • Measurement of the serum HDL cholesterol (t6 weeks).

[10] = p<0.01; cited from earlier work
[11] = target: T1, HMG-CoA reductase (Catalytic domain of the human enzyme, recombinant GST fusion protein expressed in E. Coli) (Homo sapiens, UniProt P04035); assay: Test of inhibition of HMG-CoA reductase; type: biochemical; conditions: concentration of sample set at 60 μg/mL
T1 construct: (Catalytic domain of); GST; purchased Sigma
T1 sequence (P04035 340-888 limits assumed): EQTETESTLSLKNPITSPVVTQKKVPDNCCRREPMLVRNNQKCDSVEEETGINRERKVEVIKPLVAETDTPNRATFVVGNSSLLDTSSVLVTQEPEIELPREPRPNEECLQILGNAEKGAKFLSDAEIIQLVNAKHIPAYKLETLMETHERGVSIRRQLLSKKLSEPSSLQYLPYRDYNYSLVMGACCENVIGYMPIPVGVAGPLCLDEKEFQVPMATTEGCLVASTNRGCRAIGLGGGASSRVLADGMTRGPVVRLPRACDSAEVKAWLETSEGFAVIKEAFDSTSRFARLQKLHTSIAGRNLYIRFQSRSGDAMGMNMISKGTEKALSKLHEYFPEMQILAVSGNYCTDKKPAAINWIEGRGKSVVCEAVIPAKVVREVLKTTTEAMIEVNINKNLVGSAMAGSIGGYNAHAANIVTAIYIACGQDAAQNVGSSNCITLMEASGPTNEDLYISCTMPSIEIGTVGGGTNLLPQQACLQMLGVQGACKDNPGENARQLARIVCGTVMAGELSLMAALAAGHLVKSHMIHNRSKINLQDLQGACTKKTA

SMILES: O=C(/C=C/C=C/c1ccc2c(c1)OCO2)N1CCCCC1 [Composition C5, piperine]
Observed degree of efficacy (in % of the control group), fasting glycemia after eight weeks of treatment [1]: −13.3%
Observed degree of efficacy (in % of the control group), oral test of carbohydrate tolerance, AUC (week 8 − week 0) [2]: −82.3%
Body mass (mean ± SEM) [3]: 32.7 ± 1.5 g

SMILES: CSc1ccc(C(=O)/C=C/c2cc(C)c(OC(C)(C)C(=O)O)c(C)c2)cc1 [GFT 505, Elafibranor]
HbA1c [4]: 6%

SMILES: CN(C)C(=N)N=C(N)N [Metformin, metformin]
Body mass [5]: 40.8 ± 2.1 g
Fasting glycemia [6]: 474 ± 24 mg/dL
HbA1c [7]: 7.59 ± 0.24%
Area under the curve measured during an test of insulin sensitivity (AUC) [8]: 32778 ± 3166 mg·min/dL
Serum triglycerides [9]: 256.23 ± 28.19 mg/dL
HDL cholesterol ([9]; serum): 99.21 ± 6.03 mg/dL

SMILES: CC[C@H]1[C@@H](O)[C@@H]2[C@H](CC[C@]3(C)[C@@H]([C@H](C)CCC(=O)O)CC[C@@H]23)[C@@]2(C)CC[C@@H](O)C[C@@H]12 [OCA, obeticholic acid]
Reduction of circulating HDL cholesterol [10]: -0.2 g/L

% of inhibition HMG-CoA reductase [11]: 100%
inhibition at 60 µg/mL [11]: 100%
SMILES: CC[C@H](C)C(=O)O[C@H]1C[C@H](O)C=C2C=C[C@H](C)[C@H](CC[C@@H](O)C[C@@H](O)CC(=O)O)[C@H]21 [Pravastatin]

Source: patent US9962420B2, “Compositions and methods for treating diabetes, fatty liver, cardiopathies, insulin resistance, carbohydrate and fat metabolism” (VALBIOTIS, priority 2014, dated 2018)
